Results as given in patent US7205304B2, “Sulfonyl-Derivatives as novel inhibitors of histone deacetylase” (Janssen Pharmaceutica N.V., priority 2002, dated 2007).
In brackets after ≈: the same amount, converted by molar mass.

Key:
[1] = target: histone deacetylase (HeLa nuclear extracts); assay: In vitro assay for inhibition of histone deacetylase; assay type: biochemical; conditions: [3H]acetylated histone H4 peptide substrate
Procedure: The in vitro assay for inhibition of histone deacetylase (see example C.1) measures the inhibition of HDAC enzymatic activity obtained with the compounds of formula (I).
HeLa nuclear extracts (supplier: Biomol) were incubated at 60 μg/ml with 2×10^−8 M of radiolabeled peptide substrate. As a substrate for measuring HDAC activity a synthetic peptide, i.e. the amino acids 14–21 of histone H4, was used. The substrate is biotinylated at the NH2-terminal part with a 6-aminohexanoic acid spacer, and is protected at the COOH-terminal part by an amide group and specifically [^3H]acetylated at lysine 16. The substrate, biotin-(6-aminohexanoic)Gly-Ala-([^3H]-acetyl-Lys-Arg-His-Arg-Lys-Val-NH2), was added in a buffer containing 25 mM Hepes, 1 M sucrose, 0.1 mg/ml BSA and 0.01% Triton X-100 at pH 7.4. After 30 min the deacetylation reaction was terminated by the addition of HCl and acetic acid. (final concentration 0.035 mM and 3.8 mM respectively). After stopping the reaction, the free ^3H-acetate was extracted with ethylacetate. After mixing and centrifugation, the radioactivity in an aliquot of the upper (organic) phase was counted in a β-counter.
For each experiment, controls (containing HeLa nuclear extract and DMSO without compound), a blank incubation (containing DMSO but no HeLa nuclear extract or compound) and samples (containing compound dissolved in DMSO and HeLa nuclear extract) were run in parallel. In first instance, compounds were tested at a concentration of 10^−5M. […] In each test the blank value was substracted from both the control and the sample values. The control sample represented 100% of substrate deactylation. For each sample the radioactivity was expressed as a percentage of the mean value of the controls. […] Herein the effects of test compounds are expressed as pIC50 (the negative log value of the IC50-value).

[2] = test system: A2780 ovarian carcinoma cells; assay: Antiproliferative activity on A2780 cells (MTT); assay type: cell-based, human; conditions: Homo sapiens, A2780, 96 h, four days of incubation, read-out: Cellular activity pIC50 (converted)
Procedure: Cellular activity of the compounds of formula (I) was determined on A2780 tumour cells using a colorimetric assay for cell toxicity or survival (Mosmann Tim, Journal of Immunological Methods 65: 55–63, 1983)(see example C.2).
All compounds tested were dissolved in DMSO and further dilutions were made in culture medium. Final DMSO concentrations never exceeded 0.1% (v/v) in cell proliferation assays. Controls contained A2780 cells and DMSO without compound and blanks contained DMSO but no cells. MTT was dissolved at 5 mg/ml in PBS. A glycine buffer comprised of 0.1 M glycine and 0.1 M NaCl buffered to pH 10.5 with NaOH (1 N) was prepared (all reagents were from Merck).
The human A2780 ovarian carcinoma cells (a kind gift from Dr. T. C. Hamilton [Fox Chase Cancer Centre, Pennsylvania, USA]) were cultured in RPMI 1640 medium supplemented with 2 mM L-glutamine, 50 μg/ml gentamicin and 10% fetal calf serum. Cells were routinely kept as monolayer cultures at 37° C. in a humidified 5% CO2 atmosphere. Cells were passaged once a week using a trypsin/EDTA solution at a split ratio of 1:40. All media and supplements were obtained from Life Technologies. Cells were free of mycoplasma contamination as determined using the Gen-Probe Mycoplasma Tissue Culture kit (supplier: BioMérieux).
Cells were seeded in NUNC™ 96-well culture plates (Supplier: Life Technologies) and allowed to adhere to the plastic overnight. Densities used for plating were 1500 cells per well in a total volume of 200 μl medium. After cell adhesion to the plates, medium was changed and drugs and/or solvents were added to a final volume of 200 μl. Following four days of incubation, medium was replaced by 200 μl fresh medium and cell density and viability was assessed using an MTT-based assay. To each well, 25 μl MTT solution was added and the cells were further incubated for 2 hours at 37° C. The medium was then carefully aspirated and the blue MTT-formazan product was solubilized by addition of 25 μl glycine buffer followed by 100 μl of DMSO. […] Within an experiment, the results for each experimental condition are the mean of 3 replicate wells. For initial screening purposes, compounds were tested at a single fixed concentration of 10^−6 M. For active compounds, the experiments were repeated to establish full concentration-response curves. For each experiment, controls (containing no drug) and a blank incubation (containing no cells or drugs) were run in parallel. The blank value was subtracted from all control and sample values. For each sample, the mean value for cell growth (in absorbance units) was expressed as a percentage of the mean value for cell growth of the control. […] Herein the effects of test compounds are expressed as pIC50 (the negative log value of the IC50-value).

[3] = Kinetic solubility in aqueous media (nephelometry); assay type: physicochemical; conditions: phosphate citrate buffer, pH 7.4, aqueous buffer, kinetic from dmso stock, phosphate citrate buffer pH 7.4, turbidity of three dilution steps; read-out: Solubility Score
Procedure: Kinetic solubility in aqueous media measures the ability of a compound to stay in aqueous solution upon dilution (see example C.3).
DMSO-stock solutions are diluted with a single aqueous buffer solvent in 3 consecutive steps. For every dilution turbidity is measured with a nephelometer.
In the first dilution step, 10 μl of a concentrated stock-solution of the active compound, solubilized in DMSO (5 mM), was added to 100 μl phosphate citrate buffer pH 7.4 and mixed. In the second dilution step, an aliquot (20 μl) of the first dilution step was further dispensed in 100 μl phosphate citrate buffer pH 7.4 and mixed. Finally, in the third dilution step, a sample (20 μl) of the second dilution step was further diluted in 100 μl phosphate citrate buffer pH 7.4 and mixed. All dilutions were performed in 96-well plates. Immediately after the last dilution step the turbidity of the three consecutive dilution steps were measured with a nephelometer. Dilution was done in triplicate for each compound to exclude occasional errors. Based on the turbidity measurements a ranking is performed into 3 classes. Compounds with high solubility obtained a score of 3 and for this compounds the first dilution is clear. Compounds with medium solubility obtained a score of 2. For these compounds the first dilution is unclear and the second dilution is clear. […] The solubility of 112 compounds was measured.

CN(C)CCCOc1ccccc1-c1ccc(S(=O)(=O)N2CCN(c3ncc(C(=O)NO)cn3)CC2)cc1 [Compound 154]
Enzyme activity pIC50 [1]: 8.869 | IC50 [2]: 64 nM | solubility [3]: < 75.8 µM

CN(C)Cc1cccc(-c2ccc(S(=O)(=O)N3CCN(c4ncc(C(=O)NO)cn4)CC3)cc2)c1 [Compound 168]
Enzyme activity pIC50 [1]: 8.766 | IC50 [2]: 63.8 nM | solubility [3]: > 454 µM

Cn1cnc(S(=O)(=O)N2CCN(c3ccc(C(=O)NO)cc3)CC2)c1 [Compound 65]
Enzyme activity pIC50 [1]: 5.775 | IC50 [2]: > 10000 nM | solubility [3]: > 454 µM

O=C(NO)c1ccc(N2CCN(S(=O)(=O)c3cccc(F)c3)CC2)cc1 [Compound 61]
Enzyme activity pIC50 [1]: 6.255 | IC50 [2]: 2790 nM | solubility [3]: 75.8 to 454 µM (≈ 28.8 to 172 µg/mL)

CN1CCN(Cc2cccc(-c3ccc(S(=O)(=O)N4CCN(c5ncc(C(=O)NO)cn5)CC4)cc3)c2)CC1 [Compound 169]
Enzyme activity pIC50 [1]: 8.338 | IC50 [2]: 72.4 nM | solubility [3]: > 454 µM

Cc1c(C)c(S(=O)(=O)N2CCN(c3ccc(C(=O)NO)cc3)CC2)c(C)c2c1OC(C)(C)C2 [Compound 67]
Enzyme activity pIC50 [1]: 5.177 | IC50 [2]: 855 nM | solubility [3]: < 75.8 µM

O=C(NO)c1cnc(N2C[C@@H]3C[C@H]2CN3S(=O)(=O)c2ccc3ccccc3c2)nc1 [Compound 114]
Enzyme activity pIC50 [1]: 7.428 | IC50 [2]: 750 nM | solubility [3]: > 454 µM

O=C(NO)c1cnc(N2CCN(S(=O)(=O)c3ccc(-c4cccc5cccnc45)cc3)CC2)nc1 [Compound 111]
Enzyme activity pIC50 [1]: 7.561 | IC50 [2]: 440 nM | solubility [3]: < 75.8 µM

O=C(NO)c1ccc(N2CCN(S(=O)(=O)c3cccc4ccccc34)CC2)cc1 [Compound 81]
Enzyme activity pIC50 [1]: 6.873 | IC50 [2]: 1300 nM | solubility [3]: < 75.8 µM

O=C(NO)c1cnc(N2CCN(S(=O)(=O)c3ccc(-c4cccc5c4sc4ccccc45)cc3)CC2)nc1 [Compound 130]
Enzyme activity pIC50 [1]: 6.159 | IC50 [2]: 752 nM | solubility [3]: 75.8 to 454 µM (≈ 41.4 to 248 µg/mL)

O=C(NO)c1cnc(N2CCN(S(=O)(=O)c3ccc(-c4cccc(CN5CCCC5)c4)cc3)CC2)nc1 [Compound 171]
Enzyme activity pIC50 [1]: 8.45 | IC50 [2]: 47.1 nM | solubility [3]: > 454 µM

COc1ccc(-c2ccc(S(=O)(=O)N3CCN(c4ncc(C(=O)NO)cn4)CC3)cc2)cc1 [Compound 175]
Enzyme activity pIC50 [1]: 7.691 | IC50 [2]: 68.9 nM | solubility [3]: < 75.8 µM

O=C(NO)c1cnc(N2CCN(S(=O)(=O)c3ccc(-c4ccc(Cl)c(Cl)c4)cc3)CC2)nc1 [Compound 177]
Enzyme activity pIC50 [1]: 6.428 | IC50 [2]: 308 nM | solubility [3]: < 75.8 µM

O=C(NO)c1cnc(N2CCN(S(=O)(=O)c3ccc(-c4ccc(CN5CCN(CCO)CC5)cc4)cc3)CC2)nc1 [Compound 166]
Enzyme activity pIC50 [1]: 7.969 | IC50 [2]: 61.4 nM | solubility [3]: < 75.8 µM

O=C(NO)c1cnc(N2CCN(S(=O)(=O)c3ccc4cccnc4c3)CC2)nc1 [Compound 91]
Enzyme activity pIC50 [1]: 7.688 | IC50 [2]: 783 nM | solubility [3]: > 454 µM

CC(C)(C)c1ccc(-c2ccc(S(=O)(=O)N3CCN(c4ncc(C(=O)NO)cn4)CC3)cc2)cc1 [Compound 105]
Enzyme activity pIC50 [1]: 6.494 | IC50 [2]: 798 nM | solubility [3]: < 75.8 µM

O=C(NO)c1cnc(N2CCN(S(=O)(=O)c3ccc(S(=O)(=O)c4ccccc4)s3)CC2)nc1 [Compound 183]
Enzyme activity pIC50 [1]: 7.631 | IC50 [2]: 2320 nM | solubility [3]: 75.8 to 454 µM (≈ 38.6 to 232 µg/mL)

NCCNC(=O)c1ccc(N2CCN(S(=O)(=O)c3ccc4ccccc4c3)CC2)cc1 [Compound 18]
Enzyme activity pIC50 [1]: <5 | IC50 [2]: 4080 nM | solubility [3]: < 75.8 µM

CN(C)c1cccc2c(S(=O)(=O)N3CCN(c4ccc(C(=O)NO)cc4)CC3)cccc12 [Compound 72]
Enzyme activity pIC50 [1]: 6.346 | IC50 [2]: 942 nM | solubility [3]: < 75.8 µM

O=C(NO)c1cnc(N2CCN(S(=O)(=O)c3ccc(-c4ccc(CN5CCN(CCOCCO)CC5)cc4)cc3)CC2)nc1 [Compound 165]
Enzyme activity pIC50 [1]: 7.947 | IC50 [2]: 55.6 nM | solubility [3]: < 75.8 µM

O=C(NO)c1ccc(CN2CCN(S(=O)(=O)c3ccc4ccccc4c3)CC2)cc1 [Compound 88]
Enzyme activity pIC50 [1]: 6.481 | IC50 [2]: 2840 nM | solubility [3]: > 454 µM

O=C(NO)c1cnc(N2CCN(S(=O)(=O)c3ccc(-c4ccc(F)cc4F)cc3)CC2)nc1 [Compound 107]
Enzyme activity pIC50 [1]: 7.663 | IC50 [2]: 144 nM | solubility [3]: 75.8 to 454 µM (≈ 36 to 216 µg/mL)

COc1ccc(S(=O)(=O)N2CCN(c3ncc(C(=O)NO)cn3)CC2)cc1OC [Compound 96]
Enzyme activity pIC50 [1]: 7.49 | IC50 [2]: 335 nM | solubility [3]: > 454 µM

O=C(NO)c1cnc(N2CCN(S(=O)(=O)c3ccc(-c4ccsc4CN4CCOCC4)cc3)CC2)nc1 [Compound 148]
Enzyme activity pIC50 [1]: 7.94 | IC50 [2]: 176 nM | solubility [3]: < 75.8 µM

O=C(NO)c1cnc(N2CCN(S(=O)(=O)c3ccc(-c4ccsc4CN4CCN(CCO)CC4)cc3)CC2)nc1 [Compound 152]
Enzyme activity pIC50 [1]: 8.156 | IC50 [2]: 164 nM | solubility [3]: > 454 µM

O=C(NO)c1ccc(N2CCN(S(=O)(=O)c3ccc(Cl)cc3)CC2)cc1 [Compound 76]
Enzyme activity pIC50 [1]: 6.227 | IC50 [2]: 1360 nM | solubility [3]: < 75.8 µM

Cc1cccc(C)c1-c1ccc(S(=O)(=O)N2CCN(c3ncc(C(=O)NO)cn3)CC2)cc1 [Compound 133]
Enzyme activity pIC50 [1]: 7.869 | IC50 [2]: 1260 nM | solubility [3]: 75.8 to 454 µM (≈ 35.4 to 213 µg/mL)

O=C(NO)c1cnc(N2CCN(S(=O)(=O)c3ccc(-c4cccc5c4oc4ccccc45)cc3)CC2)nc1 [Compound 131]
Enzyme activity pIC50 [1]: 6.058 | IC50 [2]: 546 nM | solubility [3]: 75.8 to 454 µM (≈ 40.1 to 241 µg/mL)

CN1CCN(Cc2ccccc2-c2ccc(S(=O)(=O)N3CCN(c4ncc(C(=O)NO)cn4)CC3)cc2)CC1 [Compound 157]
Enzyme activity pIC50 [1]: 8.228 | IC50 [2]: 96.2 nM | solubility [3]: > 454 µM

O=C(NO)c1ccc(N2CCN(S(=O)(=O)c3ccc4ccccc4c3)CC2)nc1 [Compound 142]
Enzyme activity pIC50 [1]: 8.01 | IC50 [2]: 286 nM | solubility [3]: > 454 µM

COc1cccc(-c2ccc(S(=O)(=O)N3CCN(c4ncc(C(=O)NO)cn4)CC3)cc2)c1 [Compound 15]
Enzyme activity pIC50 [1]: 7.332 | IC50 [2]: 107 nM | solubility [3]: 75.8 to 454 µM (≈ 35.6 to 213 µg/mL)
